Measurements published in patent publication US10369187B2, “Peptide regulators of JNK family kinases” (Vanderbilt University, priority 2017, dated 2019).

Tested on: ASK1-MKK4/7-JNK3 signaling cascade
Experiment: In cell JNK3 activation assay (co-expression with HA-ASK1 and HA-JNK3α2, phospho-JNK Western blot)
Type: cell-based, African green monkey
Settings: for JNK3 phosphorylation in cells, YFP fusions: YFP fusions co-expressed with JNK3 and ASK1 in COS7 cells
Description: COS-7 African green monkey cells were maintained in DMEM supplemented with 10% heat-inactivated FBS (Invitrogen), penicillin, and streptomycin at 37° C. in a humidified incubator with 5% CO2. The cells were plated at 80-90% confluence and transfected using Lipofectamine 2000 (Invitrogen) according to the manufacturer's instructions. Cells were used 48 h post-transfection and serum-starved overnight before experiments.
COS-7 cells were incubated with phosphatase inhibitors (50 mM NaF and 10 mM Na3VO4) in serum-free medium for 15 min at 37° C.; washed with cold PBS; and lysed with SDS lysis buffer containing 1% SDS, 10 mM Tris (pH7.4), 10 mM NaF, 100 μM Na3VO4, 2 mM EDTA, 2 mM benzamidine and 1 mM PMSF. JNKs activity was assayed by Western blotting using an antibody specific for phosphorylated JNK to detect phosphorylated (active) JNKs^17,20,23. Whole cell lysates were boiled for 5 min and centrifuged at 10,000×g for 10 min, and the supernatants were used for Western blotting. Protein was measured using the Bio-Rad Coomassie Blue assay. The proteins were resolved on 8% SD S-PAGE and transferred to PVDF membrane (Millipore, Bedford, Mass.). Blots were incubated with the primary antibodies (Cell Signaling Technology, Inc) anti-phospho-JNK, anti-JNK, anti-HA (6E2) (1:1000 to 1:5000), followed by appropriate HRP-conjugated secondary antibodies. Protein bands were detected by enhanced chemiluminescence (ECL, Pierce), followed by exposure to x-ray film. To quantify phospho-JNKs, serial dilutions of anisomycin (1 μg/ml)-stimulated HEK-A cell lysates were used to ensure that all samples were in linear range. The values for these proteins are expressed in arbitrary units.
The JNK3 activation was next tested in cells (See FIG. 7). COS7 cells were transfected with HA-ASK1, HA-JNK3α2, and YFP-arrestin constructs to measure in cell JNK3α2 activation. Phospho-JNK3 is shown as the uppermost band in the Western analysis, and was analyzed by densitometric quantification using Quantity One software (quantification in bottom panel). […] The data were statistically analyzed by ANOVA with protein as the main factor. Significance of the difference from control (p values) is indicated.
In Cell JNK3 Activation Assay COS7 African green monkey cells were sustained in DMEM solution containing 10% heat-inactivated FBS (Invitrogen), penicillin, and streptomycin at 37° C. and 5% CO2. Cells were transfected at 90-100% confluency in 6-well plates with pcDNA3-HA-ASK1 (0.4 ug), pcDNA3-HA-JNK3α2 (0.2 ug), and pcDNA3-Venus arrestin constructs (0.2-0.6 ug) at a 1:2 ratio of DNA:Lipofectamine 2000 (Invitrogen). At 48 hrs post-transfection, the cells were incubated with phosphatase inhibitors (20 mM NaF and 1 mM Na3VO4) in PBS for 15 mins, washed twice with cold PBS, and lysed using 50 mM Tris (pH 7.8), 2 mM EDTA, 250 mM NaCl, 10% Glycerol, 0.5% NP-40, 2 mM benzamide, and 1 mM PMSF. Protein concentration was measured using the Bio-Rad Quick Start™ Bovine Serum Albumin (BSA) Standard Set. The proteins were subjected to 10% SDS-PAGE and transferred to PVDF membrane (Millipore, Bedford, Mass.). Membranes were incubated with respective primary antibodies (Cell Signaling Technology, Inc.) anti-ASK1 (#3762S), anti-phospho-JNK (#9251), anti-SAPK/JNK (#9252P), anti-GST (#2625), or anti-HA (#3724), followed by the appropriate HRP-conjugated secondary antibodies. Bands were detected by x-ray film using enhanced chemiluminescence (ECL, Pierce) and quantification was done using the software Quantity One (BioRad).

| Substance | in cell JNK3α2 activation (phospho-JNK3 densitometry) (Example 2, YFP/Venus constructs with HA-ASK1, HA-JNK3α2 in COS7 cells) | effect on JNK3 phosphorylation compared with full-length arrestin-3 (YFP fusion co-expressed with JNK3 and ASK1 in COS7 cells) | JNK3 phosphorylation in cells, YFP fusions | dose-response curve of JNK3 phosphorylation (varying amounts of YFP-T1A with ASK1 and JNK3) |
| --- | --- | --- | --- | --- |
| MGEKPGTRVFKKSSPNCKLTVYLGK (bovine) [T1A, first 25 residues of arrestin-3] | facilitates JNK3 activation | greater than that of full-length arrestin-3 | also active | biphasic, with a clear optimum |
| MGDK-GTRVFKKASPNGKLTVYLGK (MGDKGTRVFKKASPNGKLTVYLGK; N-terminal MGDK; bovine) [B1A, homologous N-terminal peptide from arrestin-2, negative control] |  |  | does not function as a scaffold of ASK1-MKK4/7-JNK3 cascade in cells |  |
